For 38 compounds, IC50 results are on record in patent US6794386B2, “β-amino acid compounds as integrin antagonists” (Bayer Aktiengesellschaft, priority 2000, dated 2004).

Read-outs that look alike come from different tables or passages of the source.

In the assay the target is T1, VLA-4 (Homo sapiens, UniProt P05556+P13612).
T1 construct: host or cells: Jurkat clone E6-1
Kind of assay: Adhesion of Jurkat cells to immobilized VCAM-1 (domains 1-3). Type of assay: cell-based. Details: scale not given here. To be noted: adhesion of CFSE-labeled Jurkat cells to recombinant human VCAM-1 (domains 1-3) coated plates, compounds as yielded by solid phase synthesis, purity about 40-90%. The protocol:
In Vitro Assay: Adhesion of Jurkat Cells to Immobilized VCAM-1 (Domains 1-3).
Preparation of Fluorescence Labeled Jurkat Cells:
Jurkat cells (American Type Culture Collection, Clone E6-1, ATCC TIB-152) were cultured in RPMI 1640 medium (Nikken Bio Medical Laboratory, CM1101) supplemented with 10% fetal bovine serum (Hyclone, A-1119-L), 100 U/ml penicilin (Gibco BRL, 15140-122) and 100 μg/ml streptomycin (Gibco BRL, 15140-122) in a humidified incubator at 37° C. with 5% CO2.
Jurkat cells were incubated with phosphate balanced solution (PBS, Nissui, 05913) containing 25 μM of 5(-and-6)-carboxyfluorescein diacetate, succinimidyle ester (CFSE, Dojindo Laboratories, 345-06441) for 20 min at room temperature while gently swirling every 5 min. After centrifugation at 1000 rpm for 5 min, the cell pellet was resuspended with adhesion assay buffer at a cell density of 2×10^6 cells/ml. The adhesion assay buffer was composed of 24 mM Tris-HCl (pH 7.4), 137 mM NaCl, 27 mM KCl, 4 mM glucose, 0.1% bovine serum albumin (BSA, Sigma, A9647) and 2 mM MnCl2.
Preparation of VCAM-1 (Extracellular Domains 1-3):
Complementary DNA (cDNA) encoding 7-domain form of VCAM-1 (GenBank accession #M60335) was obtained using Rapid-Screen™ cDNA library panels (OriGene Technologies, Inc) at Takara Gene Analysis Center (Shiga, Japan). The primers used were 5′-CCAAGGCAGAGTACGCAAAC-3′ (sence) and 5′-TGGCAGGTATTATTAAGGAG-3′ (antisense). PCR amplification of the 3-domain VCAM-1 cDNA was perform using Pfu DNA polymerase (Stratagene) with the following sets of primers: (U-VCAMd1-3) 5′-CCATATGGTACCTGATCAATTTAAAATCGAGACCACCCCAGAA-3′; (L-VCAMd1-3) 5′-CCATATAGCAATCCTAGGTCCAGGGGAGATCTCAACAGTAAA-3′. PCR cycle was 94° C. for 45 sec, 55° C. for 45 sec, 72° C. for 2 min, repeating 15 cycles. After the purification of the PCR product, the fragment was digested with KpnI-AvrII. The digested fragment was ligated into pBluescript IISK(−) (Strategene), which was linealized by digesting with KpnI-XhoI. The ligation was followed by transformation to a Dam/Dcm methylase-free E. coli strain SCS110 (Strategene) to create the donor plasmid pH7. To direct VCAM-1 molecule into the insect cell secretory pathway, the VCAM-1 coding sequence was fused to signal peptide sequence of honeybee melittin. The resulting melittin-VCAM fusion was placed in correct orientation to the baculoviris polyhedrin promoter. Baculovirus transfer vector containing first 3-domain form VCAM-1 (pH10) was constructed by ligation of 0.9 kb fragment from AvrII/Klenow/BclI digests of pH7 into SalI/Klenow/BamHI digests of pMelBacB (Invitrogen). Recombinant baculovirus was generated by using Bac-N-Blue™ Transfection kit (Invitrogen) according to the manufacture's instruction. The recombinant virus was amplified by infection to High-Five™ insect cells for 5-6 days, and virus titer was determined by plaque assay.
High-Five™ insect cells were pelleted in a 225 ml conical tube by centrifugation at 1000 rpm for 5 min After discarding the supernatant, the pellet was resuspended in 1.5×10^9 pfu (MOI=5) of high-titer virus solution, followed by incubation for 1.5 hours at room temperature. The cells were pelleted again and washed once in fresh Express Five™ serum free medium. The cells were pelleted again and finally, resuspended in 200 ml of fresh Express Five™ medium, transferred to a 1,000 ml shaker flask, and incubated in a shaker at 27° C., 130 rpm, for 48 hours before the culture supernatant was collected. The purification of 3-domain form of VCAM-1 from the culture supernatant was performed by one-step anion exchange chromatography. Protein concentration was determined by using Coomassie protein assay reagent (Pierce) according to the manufacture's instruction.
Preparation of Microtiter Plates:
Recombinant human VCAM-1 (extracellular domains 1-3) was dissolved at 0.5 μg/ml in PBS. […]

As a reminder, the IC50 is the concentration at which inhibition is half-maximal.

T1 sequence (P13612 34-1032): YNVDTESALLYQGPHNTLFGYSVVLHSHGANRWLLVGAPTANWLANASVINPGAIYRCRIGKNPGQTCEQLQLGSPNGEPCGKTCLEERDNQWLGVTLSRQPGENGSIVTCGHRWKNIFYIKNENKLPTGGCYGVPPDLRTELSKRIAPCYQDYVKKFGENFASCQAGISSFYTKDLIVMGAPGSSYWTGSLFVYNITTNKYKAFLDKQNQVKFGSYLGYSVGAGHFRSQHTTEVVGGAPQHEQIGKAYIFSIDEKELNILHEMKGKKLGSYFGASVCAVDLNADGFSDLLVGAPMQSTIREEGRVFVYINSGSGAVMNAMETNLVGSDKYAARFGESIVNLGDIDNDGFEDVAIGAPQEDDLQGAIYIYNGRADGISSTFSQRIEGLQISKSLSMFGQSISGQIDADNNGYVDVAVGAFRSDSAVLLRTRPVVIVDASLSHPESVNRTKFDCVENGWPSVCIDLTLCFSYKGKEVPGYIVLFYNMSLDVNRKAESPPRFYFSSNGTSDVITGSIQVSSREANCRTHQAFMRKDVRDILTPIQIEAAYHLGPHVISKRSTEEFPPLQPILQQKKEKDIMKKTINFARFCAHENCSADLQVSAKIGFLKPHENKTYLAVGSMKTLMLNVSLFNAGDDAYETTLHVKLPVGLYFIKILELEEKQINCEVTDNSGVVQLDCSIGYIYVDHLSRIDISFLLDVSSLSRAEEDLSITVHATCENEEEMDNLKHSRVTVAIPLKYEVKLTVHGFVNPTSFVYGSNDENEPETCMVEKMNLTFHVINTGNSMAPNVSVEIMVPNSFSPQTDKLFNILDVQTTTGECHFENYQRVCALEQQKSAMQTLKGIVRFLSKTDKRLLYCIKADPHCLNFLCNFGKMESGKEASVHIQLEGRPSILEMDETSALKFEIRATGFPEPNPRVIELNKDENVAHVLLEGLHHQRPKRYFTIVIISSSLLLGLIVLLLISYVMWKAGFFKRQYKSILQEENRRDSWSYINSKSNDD
T1 sequence (P05556 21-798): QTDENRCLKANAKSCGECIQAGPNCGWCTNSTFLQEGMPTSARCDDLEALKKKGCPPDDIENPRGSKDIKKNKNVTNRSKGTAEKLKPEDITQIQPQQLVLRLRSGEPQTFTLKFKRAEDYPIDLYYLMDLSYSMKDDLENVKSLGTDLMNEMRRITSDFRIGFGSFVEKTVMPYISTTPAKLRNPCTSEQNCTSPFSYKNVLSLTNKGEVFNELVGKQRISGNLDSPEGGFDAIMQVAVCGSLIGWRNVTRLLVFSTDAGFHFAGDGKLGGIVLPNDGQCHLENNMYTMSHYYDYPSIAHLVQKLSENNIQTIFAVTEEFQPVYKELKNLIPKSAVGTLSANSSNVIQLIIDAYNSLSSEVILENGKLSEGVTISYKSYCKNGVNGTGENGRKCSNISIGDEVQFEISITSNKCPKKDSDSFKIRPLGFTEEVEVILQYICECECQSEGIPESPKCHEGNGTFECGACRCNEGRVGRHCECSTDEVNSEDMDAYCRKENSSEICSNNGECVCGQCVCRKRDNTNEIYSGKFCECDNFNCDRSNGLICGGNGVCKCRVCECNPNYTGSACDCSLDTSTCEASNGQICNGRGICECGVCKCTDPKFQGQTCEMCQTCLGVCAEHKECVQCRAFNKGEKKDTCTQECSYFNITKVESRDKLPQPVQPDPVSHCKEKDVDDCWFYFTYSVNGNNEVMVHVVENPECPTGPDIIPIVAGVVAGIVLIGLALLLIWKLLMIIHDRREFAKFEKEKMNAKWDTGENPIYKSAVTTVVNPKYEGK

Turning to `COc1ccccc1C(=O)N1CCCC(C(=O)N[C@@H](Cc2ccc(-c3cc(Cl)ccc3Cl)cc2)C(=O)O)C1` (stereo partly drawn) [Example 1.1, (2S)-3-(2′,5′-dichloro[1,1′-biphenyl]-4-yl)-2-({[1-(2-methoxybenzoyl)-3-piperidinyl]carbonyl}amino)propanoic acid], the IC50 (read-out: IC50) was not above 500 nM.

As for `Cc1ccc(-c2ccc(C[C@H](NC(=O)C3CCCN(C(=O)c4ccccc4Cl)C3)C(=O)O)cc2)cc1` (stereo partly drawn) [Example 1.2, (2S)-2-({[1-(2-chlorobenzoyl)-3-piperidinyl]carbonyl}amino)-3-(4′-methyl[1,1′-biphenyl]-4-yl)propanoic acid], the half-inhibitory concentration (IC50) entry was “C-D”. Consider `Cc1ccccc1-c1ccc(C[C@H](NC(=O)C2CCCN(S(=O)(=O)c3c(Cl)cccc3Cl)C2)C(=O)O)cc1` (stereo partly drawn) [Example 1.3, (2S)-2-[({1-[(2,6-dichlorophenyl)sulfonyl]-3-piperidinyl}carbonyl)amino]-3-(2′-methyl[1,1′-biphenyl]-4-yl)propanoic acid], for which, under “read-out: IC50”, the IC50 was 500 to 2000 nM. On to `O=C(N[C@@H](Cc1ccc(-c2ccc(Cl)cc2Cl)cc1)C(=O)O)C1CCCN(C(=O)c2ccccc2Cl)C1` (stereo partly drawn) [Example 1.4, (2S)-2-({[1-(2-chlorobenzoyl)-3-piperidinyl]carbonyl}amino)-3-(2′,4′-dichloro[1,1′-biphenyl]-4-yl)propanoic acid], for which the concentration for half-maximal inhibition (IC50) (read-out: IC50) lay in the range of 500 to 2000 nM. `O=C(N[C@@H](Cc1ccc(-c2cc(Cl)ccc2Cl)cc1)C(=O)O)C1CCCN(C(=O)OC2CCCC2)C1` (stereo partly drawn) [Example 1.5, (2S)-2-[({1-[(cyclopentyloxy)carbonyl]-3-piperidinyl}carbonyl)amino]-3-(2′,5′-dichloro[1,1′-biphenyl]-4-yl)propanoic acid]: the IC50 (read-out: IC50) is not above 500 nM. Still for that read-out and setting: next, `O=C(N[C@@H](Cc1ccc(-c2cc(Cl)ccc2Cl)cc1)C(=O)O)C1CCCN(S(=O)(=O)Cc2ccccc2)C1` (some centres unmarked) [Example 1.6]: not above 500 nM.

As to `O=C(N[C@@H](Cc1ccc(-c2ccccc2)cc1)C(=O)O)C1CCCN(C(=O)Cc2ccccc2)C1` (some centres unmarked) [Example 1.7], the IC50 result is “C-D”. The same measure, in the same setting: next, `O=C(N[C@@H](Cc1ccc(-c2ccccc2)cc1)C(=O)O)C1CCCN(C(=O)c2cccc(Cl)c2)C1` (some centres unmarked) [Example 1.8]: “C-D”. On to `Cc1ccc(C(=O)N2CCCC(C(=O)N[C@@H](Cc3ccc(-c4ccccc4)cc3)C(=O)O)C2)cc1` (some centres unmarked) [Example 1.9], for which the IC50 result was “C-D”.

On to `O=C(N[C@@H](Cc1ccc(-c2ccccc2)cc1)C(=O)O)C1CCCN(C(=O)c2ccc3c(c2)OCO3)C1` (some centres unmarked) [Example 1.10], for which the IC50 result is recorded as “C-D”.

For `O=C(N[C@@H](Cc1ccc(-c2ccccc2)cc1)C(=O)O)C1CCCN(C(=O)C2CCCCC2)C1` (some centres unmarked) [Example 1.11], the concentration for half-maximal inhibition (IC50) result was “C-D”.

Regarding `Cc1cc(Cl)c(CC(=O)N2CCCC(C(=O)N[C@@H](Cc3ccc(-c4ccccc4)cc3)C(=O)O)C2)c(Cl)c1` (some centres unmarked) [Example 1.12], the IC50 entry was “C-D”. On the same count and under the same terms, next, `O=C(N[C@@H](Cc1ccc(-c2ccccc2)cc1)C(=O)O)C1CCCN(C(=O)c2ccccc2Cl)C1` (some centres unmarked) [Example 1.13]: “C-D”. The same measure, in the same setting: next, `COc1ccccc1C(=O)N1CCCC(C(=O)N[C@@H](Cc2ccc(-c3ccccc3)cc2)C(=O)O)C1` (some centres unmarked) [Example 1.14]: “C-D”; `Cc1cc(C)c(OC(=O)N2CCCC(C(=O)N[C@@H](Cc3ccc(-c4ccccc4)cc3)C(=O)O)C2)c(C)c1` (some centres unmarked) [Example 1.15]: “C-D”. Regarding `O=C(N[C@@H](Cc1ccc(-c2ccccc2)cc1)C(=O)O)C1CCCN(C(=O)OC2CCCC2)C1` (some centres unmarked) [Example 1.16], where the note is “read-out: IC50”, the concentration for half-maximal inhibition (IC50) is 2000 to 10000 nM. Turning to `Cc1ccc(-c2ccc(C[C@H](NC(=O)C3CCCN(C(=O)Cc4ccccc4)C3)C(=O)O)cc2)cc1` (some centres unmarked) [Example 1.17], the concentration for half-maximal inhibition (IC50) result is on record as “C-D”. Still for that read-out and setting: the result for `Cc1ccc(-c2ccc(C[C@H](NC(=O)C3CCCN(C(=O)c4cccc(Cl)c4)C3)C(=O)O)cc2)cc1` (some centres unmarked) [Example 1.18] reads “C-D”; that for `Cc1ccc(C(=O)N2CCCC(C(=O)N[C@@H](Cc3ccc(-c4ccc(C)cc4)cc3)C(=O)O)C2)cc1` (some centres unmarked) [Example 1.19], “C-D”; that for `Cc1ccc(-c2ccc(C[C@H](NC(=O)C3CCCN(C(=O)c4ccc5c(c4)OCO5)C3)C(=O)O)cc2)cc1` (some centres unmarked) [Example 1.20], “C-D”. On the same count and under the same terms, next, `Cc1ccc(-c2ccc(C[C@H](NC(=O)C3CCCN(C(=O)C4CCCCC4)C3)C(=O)O)cc2)cc1` (some centres unmarked) [Example 1.21]: “C-D”; `Cc1ccc(-c2ccc(C[C@H](NC(=O)C3CCCN(C(=O)Cc4c(Cl)cc(Cl)cc4Cl)C3)C(=O)O)cc2)cc1` (some centres unmarked) [Example 1.22]: “C-D”; `Cc1ccc(-c2ccc(C[C@H](NC(=O)C3CCCN(C(=O)Oc4c(C)cc(C)cc4C)C3)C(=O)O)cc2)cc1` (some centres unmarked) [Example 1.23]: “C-D”. Same read-out and setting: the result for `COc1ccc(-c2ccc(C[C@H](NC(=O)C3CCCN(C(=O)C4CCCCC4)C3)C(=O)O)cc2)cc1` (some centres unmarked) [Example 1.24] reads “C-D”; that for `COc1ccc(-c2ccc(C[C@H](NC(=O)C3CCCN(C(=O)Cc4c(Cl)cc(C)cc4Cl)C3)C(=O)O)cc2)cc1` (some centres unmarked) [Example 1.25], “C-D”. For the compound `COc1ccc(-c2ccc(C[C@H](NC(=O)C3CCCN(C(=O)c4ccccc4Cl)C3)C(=O)O)cc2)cc1` (some centres unmarked) [Example 1.26], the half-inhibitory concentration (IC50) (read-out: IC50) lay within 500 to 2000 nM.

For the compound `COc1ccc(-c2ccc(C[C@H](NC(=O)C3CCCN(C(=O)c4ccccc4OC)C3)C(=O)O)cc2)cc1` (some centres unmarked) [Example 1.27], the concentration for half-maximal inhibition (IC50) entry is reported as “C-D”. Still for that read-out and setting: the result for `COc1ccc(-c2ccc(C[C@H](NC(=O)C3CCCN(C(=O)Oc4c(C)cc(C)cc4C)C3)C(=O)O)cc2)cc1` (some centres unmarked) [Example 1.28] reads “C-D”.

With `COc1ccc(-c2ccc(C[C@H](NC(=O)C3CCCN(C(=O)OC4CCCC4)C3)C(=O)O)cc2)cc1` (some centres unmarked) [Example 1.29], the IC50 entry is “C-D”. Still for that read-out and setting: next, `Cc1ccccc1-c1ccc(C[C@H](NC(=O)C2CCCN(C(=O)Cc3ccccc3)C2)C(=O)O)cc1` (some centres unmarked) [Example 1.30]: “C-D”. In the case of `Cc1ccccc1-c1ccc(C[C@H](NC(=O)C2CCCN(C(=O)c3cccc(Cl)c3)C2)C(=O)O)cc1` (some centres unmarked) [Example 1.31], the IC50 (read-out: IC50) is 2000 to 10000 nM. As to `Cc1ccc(C(=O)N2CCCC(C(=O)N[C@@H](Cc3ccc(-c4ccccc4C)cc3)C(=O)O)C2)cc1` (some centres unmarked) [Example 1.32], the IC50 (read-out: IC50) lay within 2000 to 10000 nM.

For `Cc1ccccc1-c1ccc(C[C@H](NC(=O)C2CCCN(C(=O)c3ccc4c(c3)OCO4)C2)C(=O)O)cc1` (some centres unmarked) [Example 1.33], the 50% inhibitory concentration (IC50) result is “C-D”. The same measure, in the same setting: next, `Cc1ccccc1-c1ccc(C[C@H](NC(=O)C2CCCN(C(=O)C3CCCCC3)C2)C(=O)O)cc1` (some centres unmarked) [Example 1.34]: “C-D”; `Cc1cc(Cl)c(CC(=O)N2CCCC(C(=O)N[C@@H](Cc3ccc(-c4ccccc4C)cc3)C(=O)O)C2)c(Cl)c1` (some centres unmarked) [Example 1.35]: “C-D”; `Cc1ccccc1-c1ccc(C[C@H](NC(=O)C2CCCN(C(=O)c3ccccc3Cl)C2)C(=O)O)cc1` (some centres unmarked) [Example 1.36]: “C-D”. In the case of `COc1ccccc1C(=O)N1CCCC(C(=O)N[C@@H](Cc2ccc(-c3ccccc3C)cc2)C(=O)O)C1` (some centres unmarked) [Example 1.37], the half-maximal inhibitory concentration (IC50) (read-out: IC50) is 500 to 2000 nM.

For the compound `Cc1cc(C)c(OC(=O)N2CCCC(C(=O)N[C@@H](Cc3ccc(-c4ccccc4C)cc3)C(=O)O)C2)c(C)c1` (some centres unmarked) [Example 1.38], the IC50 result was “C-D”.
